# Source: ChEMBL document CHEMBL3507680, “University of Dundee, Gates Library screen for HepG2 cell viability”
# Assay: Human HepG2 cell viability assay in 384 well format
# Format: toxicity, cell-based
# Design: dose 125 nL, time 70.5 hour; cytotoxicity at 70.5 h: concentration not given beside the values
# Conditions: HepG2 cells, read-out: Inhibition
row,Compound,cytotoxicity at 70.5 h [%]
1,CN(C)c1cccc(C(=O)N2CCC(c3n[nH]c(C4CC4)n3)CC2)c1,-5.06
2,CC(C)CN1CCN(C(=O)c2ccn(C)c(=O)c2)CC1,-9.05
3,COCc1nc(C(=O)N2CCCC2c2cc(C)no2)cs1 (stereo not drawn),-7.8
4,CCc1cccc(N2CCC(NC(=O)C3CCOCC3)CC2)c1,-5.26
5,CCc1cccc(N2CCC(NC(=O)c3ccoc3C)CC2)c1,19.4
6,CCc1cccc(N2CCC(NC(=O)C3CCC3)CC2)c1,-6.88
7,O=C(CCc1cccs1)N1CCCC(n2ccnc2)C1 (stereo not drawn),-5.36
8,Cc1cc(C)n(C2CN(CC(=O)NC3CCS(=O)(=O)C3)C2)n1 (stereo not drawn),-9.43
9,COc1ccc(OCCCNCCn2cccn2)cc1,22.8
10,O=C(CCCNc1ncccn1)N1CCCC(n2ccnc2)C1 (stereo not drawn),-3.12
11,COc1cc(C(=O)N2CCC(c3n[nH]c(C)n3)CC2)cc(OC)c1C,-3.07
12,CC1CCN(S(=O)(=O)NCc2ccccc2Cn2cccn2)CC1,14.5
13,COc1ccc(OC)c(C(O)CNC(=O)Nc2ccc(F)cc2F)c1 (stereo not drawn),-6.18
14,Cc1nc(CN2CCN(C(=O)CCc3ccco3)CC2)cs1,-5.22
15,Cc1cnn(C2CCCN(C(=O)c3ccc(-n4ccnc4)cc3)C2)c1 (stereo not drawn),-17.4
16,c1ncn(CC2CCCN(Cc3noc(C4CC4)n3)C2)n1 (stereo not drawn),-12.6
17,Cc1cc(C)n(CC2CCCN2C(=O)c2ccc(N(C)C)nn2)n1 (stereo not drawn),-10.8
18,Cc1cc(C)n(CC2CCCCN2C(=O)c2ccc(C(N)=O)cc2)n1 (stereo not drawn),-12
19,Cc1cc(C)n(CC2CCCN2CCC(=O)Nc2cc(C)on2)n1 (stereo not drawn),-7.1
20,O=C(c1cscn1)N1CCCC(n2cncn2)C1 (stereo not drawn),-8.94
21,O=C(c1csnn1)N1CCCC(n2cncn2)C1 (stereo not drawn),15.3
22,CN(C)c1ccc(C(=O)N2CCCC(n3cncn3)C2)nn1 (stereo not drawn),-5.16
23,Cc1cscc1C(=O)N1CCCC1CC(=O)c1cnn(C)c1 (stereo not drawn),-5.58
24,Cc1nc(CN2CCCC(Cn3cncn3)C2)no1 (stereo not drawn),15.8

row,Compound,cytotoxicity at 70.5 h [%]
1,CCCc1nc(CN2CCCC2Cn2cncn2)no1 (stereo not drawn),-6.08
2,COC(=O)C(c1cc(F)ccc1F)N(C)C(=O)c1ccccn1 (stereo not drawn),-9.53
3,COCCCNC(=O)N1CCC(CNC(=O)c2cnn(C)c2)CC1,-8.18
4,CC(C)n1ccc(C(=O)N2CCCC(n3cncn3)C2)n1 (stereo not drawn),-10.6
5,COc1ccc(OC)c(CNC(=O)N2CCC(n3cncn3)CC2)c1,35
6,Fc1ccc(OCCCN2CCCC(Cn3cncn3)C2)cc1 (stereo not drawn),-3.77
7,O=C(NCCNc1cnccn1)N1CCCCCC1,2.18
8,Cc1cnn(CC(=O)N2CCCN(c3ncccc3C#N)CC2)c1,-1.08
9,Cc1cc(C)c(CNC(=O)N2CCOC(c3ccccc3)C2)c(=O)[nH]1 (stereo not drawn),-8.25
10,Cn1cc(CCC(=O)N2CCCN(c3ncccc3C#N)CC2)cn1,35.5
11,O=C(NCCNc1cnccn1)N1CCN(c2nccs2)CC1,-8.94
12,Cc1ccccc1CNC(=O)N1CCC(n2cncn2)CC1,-5.36
13,CC(C)Sc1ncccc1C(=O)NCc1ccc(O)cc1,-2.85
14,O=C(Cn1cc(-c2ccccc2)cn1)NC(C1CC1)C1CC1,-5.32
15,N#Cc1ccc(OCCCN2CCOC(Cn3cncn3)C2)cc1 (stereo not drawn),32.1
16,COc1cc(Cl)ccc1CNC(=O)N1CCC(n2cncn2)CC1,0.114
17,CCCc1n[nH]c(C2CN(C(=O)CCn3ccccc3=O)CCO2)n1 (stereo not drawn),-2.27
18,CC(C)c1n[nH]c(C2CN(C(=O)Cn3ccccc3=O)CCO2)n1 (stereo not drawn),-2.65
19,CCNC(c1cccnc1)c1ccc(F)cc1F (stereo not drawn),2.45
20,CCN(CCNC(=O)c1cccnc1OCCOC)C1CC1,0.553
21,CCC(C)N(C)CCNC(=O)c1ccccc1OCCOC (stereo not drawn),-6.03
22,Cc1nc(C)n(CC2CCCN(CCc3ccccc3)C2)n1 (stereo not drawn),4.16
23,Cc1nc(C)n(CC2CCCN(CCOc3ccccc3C#N)C2)n1 (stereo not drawn),18.8
24,CC(=O)NCCNC(=O)CNC1CCCN(c2ccc(C)nn2)C1 (stereo not drawn),17.7

row,Compound,cytotoxicity at 70.5 h [%]
1,Cc1nc(C)n(CC2CN(CCCOc3ccccc3)CCO2)n1 (stereo not drawn),-2.14
2,Cc1nc(C)n(CC2CCCN(CCOc3ccc(F)cc3)C2)n1 (stereo not drawn),-3.5
3,CCNC(c1cccnc1)c1ccc(F)c(C)c1 (stereo not drawn),1.17
4,Cc1nc(C)n(CC2CCCN(CCOc3cccc(F)c3)C2)n1 (stereo not drawn),0.903
5,Clc1cccc(OCCCN2CCOC(Cn3cncn3)C2)c1 (stereo not drawn),1.4
6,Cc1nn(C)c(N(C)C)c1CNCc1cccnc1N(C)C,23.9
7,Cc1nn(C)c(N(C)C)c1CNCc1cccnc1OC(C)C,21.9
8,Cc1ccc(N2CCCC(NCc3ccccn3)C2)nn1 (stereo not drawn),25.6
9,CCOc1ncccc1CNCc1c(C)nn(C)c1N(C)C,24.1
10,Cc1ccc(N2CCCC(NCc3ccc(C)s3)C2)nn1 (stereo not drawn),3.59
11,Cc1nc2ccccc2nc1CN1CCOC(Cn2cccn2)C1 (stereo not drawn),-9.86
12,CCc1nc(CN2CCCC(Cn3nc(C)nc3C)C2)no1 (stereo not drawn),-9.12
13,O=C(NCc1ccccc1F)NCC(O)c1cccc(F)c1 (stereo not drawn),-10.3
14,COc1ccnc(C(=O)N2CCCC(c3noc(C)n3)C2)c1 (stereo not drawn),-12.8
15,Fc1cccc(-c2nc(CN3CCOC(Cn4cncn4)C3)co2)c1 (stereo not drawn),-15.8
16,COc1ccc(CCN2CCc3c(nc(C4CC4)n3C)C2)cc1,-2.39
17,Cc1n[nH]c(C)c1NC(=O)CN1CCc2c(nc(C3CC3)n2C)C1,17.7
18,CC(C)OCCN1CCN(C(=O)c2cccc(CC#N)c2)CC1,-12
19,CCN(Cc1ccc2c(c1)OCO2)C(=O)NC(C)Cn1cccn1 (stereo not drawn),-12.9
20,COCC(O)CN(C)C(=O)NC1CCN(Cc2ccccn2)CC1 (stereo not drawn),-17.1
21,CC(Cn1ccnc1)NC(=O)NCCc1ccc2c(c1)OCCO2 (stereo not drawn),13.3
22,CCN(Cc1ccc2c(c1)OCCO2)C(=O)NC(C)Cn1ccnc1 (stereo not drawn),-12.9
23,COCc1ccccc1CNc1cc(N2CCCC2CO)ncn1 (stereo not drawn),-18.2
24,O=C1CCc2cc(-c3csc(CCN4CCCC4=O)n3)ccc2N1,-14.6

row,Compound,cytotoxicity at 70.5 h [%]
1,CC(C)c1cc(NC(=O)CN2CCc3ccccc3C2)on1,-6.95
2,CC(NC(=O)c1cccs1)C(=O)NCc1ccccc1CN1CCCC1 (stereo not drawn),-2
3,COc1ncccc1NC(=O)NCC1CCS(=O)(=O)C1 (stereo not drawn),-18.6
4,CCn1cnnc1CNC(=O)NC(C)c1cccs1 (stereo not drawn),-14.5
5,CN(Cc1cnn(C)c1)C(=O)NC1CCN(Cc2ccccn2)CC1,-11.3
6,Cc1ncsc1C(=O)NC1CCN(CCC(N)=O)CC1,-21.4
7,c1ccc(-n2ccnc2)c(CNCC2CNc3ccnn3C2)c1 (stereo not drawn),-20.8
8,O=C(Cc1ccc2c(c1)OCCO2)NC1CCN(CC(F)F)CC1,-19.5
9,CCn1cnnc1CNC(=O)NCC(c1cccs1)N1CCCC1 (stereo not drawn),-14
10,Cc1cccc(C)c1OCCC(=O)N1CCC(c2nncn2C)CC1,-21.4
11,Cc1ccc(C(=O)CCC(=O)N2CCC(c3nncn3C)CC2)cc1,-4.47
12,Cn1ccnc1CN1CCN(CC(O)c2ccc(F)c(F)c2)CC1 (stereo not drawn),13.5
13,CC(C)c1cc(NC(=O)CN2CCc3cncnc3C2)on1,-11.7
14,CC(=O)Nc1nc(C(=O)N2CCCC2c2noc(C)n2)cs1 (stereo not drawn),6.71
15,CCn1ccnc1CN(C)CC1CCCN1c1cccnn1 (stereo not drawn),10
16,CC(=O)N(Cc1ncc(C)o1)C1CCN(CCCc2cnn(C)c2)C1 (stereo not drawn),13.3
17,Cc1ccc(CN(C)CC(=O)NC2(C)CCS(=O)(=O)C2)cc1 (stereo not drawn),-3.98
18,COc1ccc(CC(=O)NC2(C)CCS(=O)(=O)C2)cc1F (stereo not drawn),0.396
19,CCn1ccnc1CNCC1CCCN1c1cc(NC)ncn1 (stereo not drawn),-4.32
20,Cc1cc(C2CCCN(C(=O)c3c(C)nn4cccnc34)C2)n[nH]1 (stereo not drawn),-3.82
21,Cc1ccoc1-c1nnc(CN2CCn3c(nnc3C3CC3)C2)o1,31.2
22,Cc1noc(C)c1CN(C)CCC(=O)N1CCc2sccc2C1,-4.03
23,Cc1occc1CNC(=O)N(CCCO)C1CCc2ccccc21 (stereo not drawn),-1.74
24,CCc1ncc2c(n1)CN(CC(=O)Nc1ccc(Cl)cn1)CC2,32.4

row,Compound,cytotoxicity at 70.5 h [%]
1,COCCN1CCN(Cc2cccc(C(=O)N(C)C)c2)CC1C (stereo not drawn),14.5
2,CCCNC(=O)NCc1cccnc1OC,-5.64
3,CN(Cc1ccc2c(c1)OCCO2)C(=O)Cn1cccnc1=O,3.46
4,CCN1CCN(c2ccc(CNC(=O)c3c(C)noc3C)cn2)CC1,21.7
5,CN(Cc1ccc2c(c1)OCCO2)C(=O)Cn1ccccc1=O,-5.02
6,CCNC(=O)c1ccc(CNCc2c(C)nn(C)c2N(C)C)cc1,24.8
7,CC(C)CN1CCN(C(=O)NCc2cccnc2-n2cccn2)CC1,3.85
8,CC(=O)NC1CCCN(C(=O)NCc2cccnc2-n2cccn2)C1 (stereo not drawn),3.84
9,Cc1nn(C)c(Cl)c1CNCc1ccc(OCC(N)=O)cc1,1.75
10,O=C(NCCc1coc(-c2ccc(F)cc2)n1)NC1CCC(O)CC1 (stereo not drawn),27.6
11,CN(C(=O)Cc1c[nH]c2ccccc12)C1CCN(c2ccccn2)CC1,9.62
12,Cn1cc(C(=O)N2CCCC(n3cccn3)C2)c2ccccc21 (stereo not drawn),0.858
13,Cc1nn(-c2ccccc2)cc1C(=O)N1CCCC(n2cccn2)C1 (stereo not drawn),-1.21
14,Cc1nn(-c2ccccc2)cc1C(=O)N1CCCN2CCCC2C1 (stereo not drawn),3.01
15,Cc1noc(C)c1CN1CCN(Cc2nccn2C)CC1,-4.67
16,Cc1ccc(-c2nc(CCNC(=O)NC3CCN(C)CC3)co2)cc1,-4.33
17,COc1ccccc1CCN(C)C(=O)NC(C)c1nncn1C (stereo not drawn),-4.33
18,Cc1cc(C)n(CC2CCCCN2C(=O)c2cnn(C)c2)n1 (stereo not drawn),8.99
19,Cc1cc(C)n(CC2CCCCN2C(=O)c2ccc3c(c2)OCO3)n1 (stereo not drawn),-2.07
20,Cc1ccc2oc(C(=O)N3CCc4nnc(N(C)C)cc4C3)cc2n1,-3.29
21,Cc1cnc(CN2CCCC(c3cc(C(F)(F)F)[nH]n3)C2)cn1 (stereo not drawn),-1.33
22,COCCN1CCN(Cc2cccc(OCC(N)=O)c2)CC1C (stereo not drawn),10.7
